Reference: paper PMC8480901 (PLoS ONE, 2021)
“And” between values parts separate entries of the source, which are not always exact repeats. Equal values may be shown once.

How the values were obtained:
[1] = system: TNF-α, IL-6, IL-1β, GM-CSF, CXCL-1, CXCL-2, CCL-2 and MMP-9 in lung tissue; assay: LPS-induced cytokines, chemokines and MMP-9 in mouse lung homogenates (Luminex, ELISA); conditions: lung homogenate, LPS; for IL-6 Mean / MMP9, Mean / TNFα Mean / CCL2 Mean / CXCL1, Mean / CXCL2, Mean / GM-CSF Mean / IL-1β Mean: mean of 8; for CCL2 / CXCL1 / CXCL2 / GM-CSF / IL-1β / IL-6 / MMP9 / TNFα: individual animal, listed as Lef
Description: To induce pulmonary neutrophilia, mice in the control group received intranasal (IN) 50 μL saline, and all other animals received 5 μg LPS/50 μL saline IN per mouse.
After bronchoalveolar lavage, lungs were removed, weighed, snap frozen, and stored at −80°C until analysis. To homogenize the tissue, the frozen lungs were thawed and placed in Precellys CK28 Hard Tissue tubes (BERTIN Instruments, Montigny-le-Bretonneux, France) in 1 mL PBS (Gibco, Life Technologies, Paisley, UK) supplemented with protease inhibitors (Halt™ Protease Inhibitor Cocktail [100×]; Thermo Fisher Scientific, Rockford, IL, USA). A Precellys homogenizer (BERTIN Instruments) was used, shaking at 6800 rpm for three 30-second pulses separated by 15-second pauses. After homogenization, samples were centrifuged at 18,000×g for 10 minutes at 4°C, and the supernatants were collected for analysis.
Concentrations of tumor necrosis factor (TNF)-α, IL-6, granulocyte-macrophage colony-stimulating factor (GM-CSF), chemokine (C-X-C motif) ligand (CXCL)-1, CXCL-2, and chemokine (C-C motif) ligand (CCL)-2 in mouse lung homogenates were analyzed with the Mouse Premixed Multi-Analyte Kit (R&D Systems, Minneapolis, MN, USA) per the manufacturer’s protocol and using a Luminex 200 System (Luminex Corporation, Austin, TX, USA). Cytokine and chemokine concentrations were determined from blank-corrected median fluorescence intensity of each sample via xPONENT® software (Luminex Corporation), interpolating from standard curves generated with a 5-parameter logistic curve-fit.
Mouse Total MMP (matrix metalloprotease)-9 and IL-1β/IL-1F2 DuoSet ELISA (enzyme-linked immunosorbent assay) kits (R&D Systems) were used to measure concentrations of MMP-9 and IL-1β, respectively, in lung homogenates per the manufacturer’s protocols. Absorbance at 450 nm was measured using the SpectraMax i3 (Molecular Devices, San Jose, CA, USA). Concentrations of MMP-9 and IL-1β in samples were determined by interpolation from standard curves.
Differences between treated versus vehicle groups were determined using the Mann-Whitney test and were considered statistically significant when P<0.05. Outliers in the analysis of cytokine and chemokine concentrations were identified using the Grubbs test. No criteria were set for inclusion/exclusion of animals during the experiment or data points during the analysis.

[2] = system: human PBMCs; assay: Cytotoxicity in human PBMCs (adenylate kinase release, ToxiLight); type: cell-based; conditions: for fold-change of adenylate kinase release at test concentration vs vehicle control, Mean ± SEM: human PBMCs, n=2
Description: The effect of t est compounds on cell viabilit y of J 774.2 macrophages and human PBMCs […]
was determined b y comp aring th e aden yl ate kinas e signal obtain ed in the p resence of diff er ent concentrations of compounds with those obtained in DMSO (vehicle) control. Signals were […]
divided,and the results were ex pressed as fold-change versus v ehicle con trol .

In the case of `C=C[C@]1(C)C[C@@H](OC(=O)CS[C@@H]2CC[C@@H](N)C[C@H]2O)[C@]2(C)[C@H](C)CC[C@]3(CCC(=O)[C@H]32)[C@@H](C)[C@@H]1O` [Lefamulin], the “IL-6 Mean” value ([1]; 10 mg/kg) is reported as 175 pg/mL, the “MMP9, Mean” value ([1]; 10 mg/kg) is reported as 2244 pg/mL and the “TNFα Mean” value ([1]; 10 mg/kg) is reported as 220 pg/mL. For the same compound, the CCL2 % reduction ([1]; 30 mg/kg) was 105%, the CXCL1 % reduction ([1]; 30 mg/kg) was 52% and the CXCL2 % reduction ([1]; 30 mg/kg) was 61%. The GM-CSF % reduction ([1]; 30 mg/kg) was 95%, the IL-1β % reduction ([1]; 30 mg/kg) was 8% and the IL-6 % reduction ([1]; 30 mg/kg) was 120%. The MMP9 % reduction ([1]; 30 mg/kg) was 26%, the TNFα % reduction ([1]; 30 mg/kg) was 77% and the CCL2 ([1]; 30 mg/kg) was 664.18 pg/mL and 229.87 pg/mL and 256.42 pg/mL and 281.81 pg/mL and 306.24 pg/mL and 172.04 pg/mL. The CXCL1 ([1]; 30 mg/kg) was 9099.72 pg/mL and 7572.60 pg/mL and 6087.32 pg/mL and 5765.52 pg/mL and 5509.25 pg/mL and 4685.62 pg/mL and 6328.54 pg/mL and 4359.63 pg/mL, the CXCL2 ([1]; 30 mg/kg) was 7789.00 pg/mL and 4810.48 pg/mL and 4106.80 pg/mL and 4675.09 pg/mL and 4634.09 pg/mL and 3899.14 pg/mL and 3943.89 pg/mL and 3825.96 pg/mL and the GM-CSF ([1]; 30 mg/kg) was 46.10 pg/mL and 24.75 pg/mL and 27.29 pg/mL and 23.05 pg/mL and 21.37 pg/mL and 16.32 pg/mL and 9.66 pg/mL. The IL-1β ([1]; 30 mg/kg) was 12246 pg/mL and 8161 pg/mL and 9564 pg/mL and 10656 pg/mL and 10104 pg/mL and 9202 pg/mL and 9081 pg/mL and 11831 pg/mL, the IL-6 ([1]; 30 mg/kg) was 118.12 pg/mL and 87.03 pg/mL and 60.54 pg/mL and 67.15 pg/mL and 58.34 pg/mL and 45.17 pg/mL and 29.90 pg/mL and 48.46 pg/mL and the MMP9 ([1]; 30 mg/kg) was 2129 pg/mL and 1886 pg/mL and 1848 pg/mL and 1924 pg/mL and 1726 pg/mL and 1867 pg/mL and 2081 pg/mL and 2097 pg/mL. The TNFα ([1]; 30 mg/kg) was 186.35 pg/mL and 395.67 pg/mL and 202.12 pg/mL and 215.17 pg/mL and 246.13 pg/mL and 275.41 pg/mL and 284.25 pg/mL and 181.07 pg/mL, the “CCL2 Mean” value ([1]; 30 mg/kg) was 296 pg/mL and the “CXCL1, Mean” value ([1]; 30 mg/kg) was 6176 pg/mL. The “CXCL2, Mean” value ([1]; 30 mg/kg) was 4711 pg/mL, the “GM-CSF Mean” value ([1]; 30 mg/kg) was 23 pg/mL and the “IL-1β Mean” value ([1]; 30 mg/kg) was 10106 pg/mL. For the same compound, the “IL-6 Mean” value ([1]; 30 mg/kg) was 64 pg/mL, the “MMP9, Mean” value ([1]; 30 mg/kg) was 1945 pg/mL and the “TNFα Mean” value ([1]; 30 mg/kg) was 248 pg/mL. The CCL2 % reduction ([1]; 100 mg/kg) was 107%, the CXCL1 % reduction ([1]; 100 mg/kg) was 57% and the CXCL2 % reduction ([1]; 100 mg/kg) was 64%. The GM-CSF % reduction ([1]; 100 mg/kg) was 96%, the IL-1β % reduction ([1]; 100 mg/kg) was 24% and the IL-6 % reduction ([1]; 100 mg/kg) was 117%. The MMP9 % reduction ([1]; 100 mg/kg) was 53%, the TNFα % reduction ([1]; 100 mg/kg) was 81% and the CCL2 ([1]; 100 mg/kg) was 329.86 pg/mL and 256.42 pg/mL and 172.04 pg/mL and 139.64 pg/mL. For the same compound, the CXCL1 ([1]; 100 mg/kg) was 7499.26 pg/mL and 6087.32 pg/mL and 5076.24 pg/mL and 5758.20 pg/mL and 5443.29 pg/mL and 4906.96 pg/mL and 4656.06 pg/mL and 5472.61 pg/mL, the CXCL2 ([1]; 100 mg/kg) was 5382.65 pg/mL and 5518.93 pg/mL and 4695.59 pg/mL and 3380.13 pg/mL and 4061.97 pg/mL and 3178.30 pg/mL and 3700.08 pg/mL and 4913.16 pg/mL and the GM-CSF ([1]; 100 mg/kg) was 21.37 pg/mL and 19.68 pg/mL and 33.25 pg/mL and 14.65 pg/mL and 16.32 pg/mL and 11.32 pg/mL. The IL-1β ([1]; 100 mg/kg) was 10645 pg/mL and 6459 pg/mL and 7591 pg/mL and 8558 pg/mL and 9892 pg/mL and 7429 pg/mL and 7844 pg/mL and 8730 pg/mL, the IL-6 ([1]; 100 mg/kg) was 135.95 pg/mL and 78.18 pg/mL and 127.03 pg/mL and 99.22 pg/mL and 71.56 pg/mL and 56.14 pg/mL and 105.88 pg/mL and the MMP9 ([1]; 100 mg/kg) was 2385 pg/mL and 1353 pg/mL and 1095 pg/mL and 1490 pg/mL and 1351 pg/mL and 1232 pg/mL and 1807 pg/mL and 1236 pg/mL. The TNFα ([1]; 100 mg/kg) was 204.74 pg/mL and 121.62 pg/mL and 366.33 pg/mL and 248.69 pg/mL and 116.08 pg/mL and 181.07 pg/mL and 124.38 pg/mL and 233.28 pg/mL, the “CCL2 Mean” value ([1]; 100 mg/kg) was 209 pg/mL and the “CXCL1, Mean” value ([1]; 100 mg/kg) was 5612 pg/mL. For the same compound, the “CXCL2, Mean” value ([1]; 100 mg/kg) was 4354 pg/mL, the “GM-CSF Mean” value ([1]; 100 mg/kg) was 19 pg/mL and the “IL-1β Mean” value ([1]; 100 mg/kg) was 8394 pg/mL. For the same compound, the “IL-6 Mean” value ([1]; 100 mg/kg) was 91 pg/mL, the “MMP9, Mean” value ([1]; 100 mg/kg) was 1494 pg/mL and the “TNFα Mean” value ([1]; 100 mg/kg) was 200 pg/mL. The cell viability ([2]; PBMCs, 100 μM) was “reduced”, the “fold-change of adenylate kinase release at test concentration vs vehicle control, Mean ± SEM” value (shortened to “fold-change … Mean ± SEM”) ([2]; 0.03 µM) was 1.07 ± 0.03 fold-change and the “fold-change … Mean ± SEM” value ([2]; 0.1 µM) was 1.04 ± 0.01 fold-change. For the same compound, the “fold-change … Mean ± SEM” value ([2]; 0.3 µM) was 1.03 ± 0.02 fold-change, the “fold-change … Mean ± SEM” value ([2]; 1 µM) was 1.00 ± 0.01 fold-change and the “fold-change … Mean ± SEM” value ([2]; 3 µM) was 0.95 ± 0.01 fold-change. The “fold-change … Mean ± SEM” value ([2]; 10 µM) was 0.93 ± 0.01 fold-change, the “fold-change … Mean ± SEM” value ([2]; 30 µM) was 0.92 ± 0.03 fold-change and the “fold-change … Mean ± SEM” value ([2]; 100 µM) was 1.20 ± 0.03 fold-change.
